The text below walks through data of a melting point compilation (Tetko et al.).

As to `CC(C)(C)C(Br)C(N)=O` (stereo not drawn), the melting point (in general, the temperature, or range, at which the solid turns liquid) fell in the range of 91 to 93 °C.
For the compound `Cc1ccc(-c2ccsc2C(=O)O)cc1`, the melting point lay in the range of 134 to 136 °C.
Under `NC(=NO)c1ccccc1OCc1ccccc1` stands 120 to 122 °C.
`CC(=O)Nc1ccc(SCC(=O)O)cc1`: the melting point lay within 156 to 158 °C.
The same measure for `COc1cc(C(N)=S)ccn1`: 117 to 119 °C; for `CC(C)(C)OC(=O)Nc1ccc(Cc2nc(C(=O)O)cs2)cc1`: 164 to 166 °C; for `Cc1cc(N)c2c(n1)CCCC2`: 121 to 123 °C.
The same measure for `Clc1ccc2c(Cl)ccc(Cl)c2n1`: 85 to 87 °C; for `O=S(=O)(F)c1ccc(Br)cn1`: 92 to 94 °C; for `O=C(O)c1ccccc1SCc1ccsc1`: 213 to 215 °C.
The same measure for `O=C(Nc1cccc2cccnc12)OCC(F)(F)F`: 75 to 77 °C.
In turn, `Nc1ccc2cccc(Cl)c2n1` came in with a melting point of 165 to 167 °C.
The same measure for `O=c1[nH]nc(Br)c(=O)[nH]1`: 188 to 190 °C; for `CC(=O)Nc1cc2c(cc1C)OCO2`: 164 to 166 °C; for `Oc1ccc(-c2ncc[nH]2)cc1`: 265 to 267 °C.
Under `Sc1nnc(-c2c[nH]c3ccccc23)n1CC1CCCO1` (stereo not drawn) stands 251 to 253 °C.
Under `O=c1sc2ccccc2nc1NO` stands 244 to 246 °C; under `Cc1ccc2cccc(C(=O)O)c2n1`, 152 to 154 °C; under `O=Cc1ccc(OCC(=O)Nc2ccccc2)cc1`, 125 to 127 °C.
The compound `Cc1nn(-c2ccccc2)c(C)c1C(O)C(F)(F)F` (stereo not drawn) had a melting point of 162 to 164 °C.
The same measure for `Cc1ccc(S(=O)(=O)Cl)c(C)c1C(=O)O`: 147 to 149 °C; for `CC(C)(C)c1ccc(Nc2ncccc2C(N)=S)cc1`: 152 to 154 °C.
On to `Cc1ncsc1C(=O)NN`, for which the melting point was in the range of 168 to 170 °C.
Under `Cc1cccc(NCCC(N)=O)c1` stands 91 to 93 °C.
The same measure for `CCCCCCCOc1ccc(C=O)cc1OCC`: 43 to 47 °C; for `Nc1nnc(-c2ccc(Br)cc2F)s1`: 194 to 196 °C.
Under `O=C(O)CCCN1C(=O)CNC1=O` stands 151 to 153 °C; under `CCNC(=O)NC(=O)CN(C)Cc1ccccc1`, 62 to 64 °C.
Compound `Cc1ncncc1C(=O)O` returned a melting point of 174 to 176 °C.
Under `COc1ccc(NC(=O)c2ccccc2N)cn1` stands 129 to 131 °C; under `CC(=O)NCCC(N)=S`, 99 to 101 °C.
For `O=C(O)c1ccc(S(=O)(=O)CC(F)F)cc1`, the melting point lay within 212 to 214 °C.
The same measure for `Cc1cc(C(=O)O)c(Br)s1`: 181 to 183 °C; for `NCC(=O)N1CCN(c2ccc(Cl)cc2)CC1`: 87 to 89 °C.
Take `COC(=O)c1cc(Cl)cc(Cl)c1N`: the melting point lay within 65 to 67 °C.
Under `Cc1c(S(=O)(=O)Cl)cnn1-c1ccccc1Cl` stands 98 to 100 °C; under `O=C(CN1CCNCC1)NCc1ccccc1`, 49 to 51 °C; under `O=C(O)CNC(=O)/C=C/c1ccccc1`, 191 to 193 °C.
The same measure for `NCc1cccc(CS(N)(=O)=O)c1`: 142 to 144 °C.
Under `Nc1ccccc1C(=O)Nc1ccc(F)cc1Cl` stands 103 to 105 °C; under `O=Cc1c[nH]c2cc(F)ccc12`, 176 to 178 °C.
As for `Cc1ccc(-c2nc(C(=O)O)cs2)c(C)c1`, the melting point is 129 to 131 °C.
Under `Cc1ccnc(O)c1C(=O)O` stands 229 to 231 °C; under `CC(=O)Nc1ccc2nc(N)sc2c1`, 217 to 219 °C.
With `NS(=O)(=O)CC1CCC1`, the melting point lay within 97 to 99 °C.
Under `Nc1cc(Cl)cc2[nH]cnc12` stands 89 to 91 °C.
The same measure for `CC(=O)c1cncc(F)c1`: 48 to 50 °C; for `ON=C1CCCOc2ccc(Br)cc21`: 107 to 109 °C; for `Nc1cc(-c2cccc(Cl)c2)n[nH]1`: 130 to 132 °C.
Under `CS(=O)(=O)Cc1cc(N)ccc1Cl` stands 135 to 137 °C; under `O=C(O)Cn1c(=O)cnc2ccccc21`, 195 to 199 °C.
In turn, `Cc1cc(C(=O)O)c(C)n1-c1nccs1` came in with a melting point of 173 to 175 °C.
The same measure for `Nc1cc(Cl)ccc1C(=O)Nc1ccc(Cl)cn1`: 157 to 159 °C.
The same measure for `NS(=O)(=O)CCOc1ccccc1`: 102 to 104 °C; for `O=C(NCCO)c1ccn[nH]1`: 169 to 171 °C.
In turn, `O=C(O)c1cc(F)cc([N+](=O)[O-])c1Br` gave a melting point of 177 to 179 °C.
The same measure for `COc1ccc(NS(=O)(=O)c2cc(N)ccc2OC)cc1`: 133 to 135 °C.
For the compound `O=C(O)CCc1c(-c2ccc(F)cc2)[nH]c2ccccc12`, the melting point lay in the range of 114 to 121 °C.
Under `O=C1CCCCc2c[nH]cc21` stands 64 to 66 °C.
`Nc1ccc(Cl)cc1C(=O)N1CCCC1`: the melting point fell in the range of 139 to 141 °C.
Under `O=Cc1ccc(-n2ccc(C(F)(F)F)n2)cc1` stands 68 to 70 °C; under `CC(C)c1nc(-c2cccc3ncccc23)n[nH]1`, 143 to 145 °C; under `N#Cc1ccc([N+](=O)[O-])cc1F`, 69 to 71 °C.
Under `COc1cc2[nH]nnc2cc1C(=O)O` stands 219 to 221 °C; under `Cc1cc(S(=O)(=O)Cl)ccc1OC(C)C`, 50 to 52 °C; under `O=S(=O)(Cl)c1ccc(S(=O)(=O)NC2CC2)cc1`, 126 to 128 °C.
Under `CC(=O)c1cccc(-n2cnnn2)c1` stands 155 to 157 °C.
`N#Cc1cccc(NC(=O)CSc2ccccc2C(=O)O)c1` yielded a melting point of 118 to 120 °C.
Under `CC1CCCN(S(=O)(=O)c2ccc(CN)cc2)C1` (stereo not drawn) stands 92 to 94 °C; under `COc1cccc(NC(=S)NN)c1`, 168 to 170 °C; under `Nc1ccc2nc(CN3CCOCC3)[nH]c2c1`, 160 to 162 °C.
Under `CCOc1cc(C=O)ccc1OCc1c(Cl)cccc1Cl` stands 115 to 117 °C; under `Cc1nc(-c2ncccn2)sc1C(=O)O`, 224 to 226 °C.
Compound `CCCNS(=O)(=O)c1ccc(/C=C/C(=O)O)cc1` showed a melting point of 235 to 237 °C.
`Cc1cc(Oc2ccc(N)cc2)n[nH]1` yielded a melting point of 189 to 191 °C.
As for `CCOC(=O)CCOc1ccc(C(C)=O)cc1`, the melting point was 55 to 57 °C.
The same measure for `[N-]=[N+]=Nc1ccnc(C(N)=O)c1`: 169 to 171 °C.
`O=C(O)C(Sc1ccc(F)cc1F)c1ccccc1` (stereo not drawn) displayed a melting point of 109 to 111 °C.
The same measure for `O=C(O)c1cc(-n2ccnc2)ccn1`: 194 to 196 °C.
Under `Nc1cccc(C2SCCCS2)c1` stands 140 to 142 °C.
Under `Cc1cc(C(=O)CCl)c(C)n1-c1cc(Cl)cc(Cl)c1` stands 113 to 115 °C; under `O=C(O)c1cccc(OCc2ccccc2)c1`, 113 to 115 °C.
For `O=C(CCl)Nc1cc2c(cc1[N+](=O)[O-])OCO2`, the melting point was 142 to 144 °C.
The same measure for `Nc1ccccc1C(=O)Nc1ccncc1`: 144 to 146 °C; for `O=C(CCl)Nc1nncs1`: 233 to 235 °C.
Under `Cc1ccc(Oc2ccc(C#N)cc2)cc1` stands 69 to 71 °C; under `O=S(=O)(Cl)C1=Cc2ccc(OC(F)F)cc2CC1`, 72 to 74 °C.
Compound `NNC(=O)CNc1ccc(F)cc1` had a melting point of 80 to 83 °C.
Take `O=c1[nH]cc(N2CCOCC2)c(=O)[nH]1`: the melting point fell in the range of 304 to 306 °C.
Under `Cc1sc2ncnc(NN)c2c1C` stands 208 to 210 °C.
The same measure for `Cc1cc(=O)[nH]c(-c2ccncc2)n1`: 241 to 243 °C; for `O=C(O)Cc1coc(-c2cccs2)n1`: 185 to 187 °C; for `O=C(C=NO)Nc1ccc(F)cc1Cl`: 145 to 147 °C.
The same measure for `Cc1cc(=O)n2c(n1)NCC2`: 159 to 161 °C; for `Nc1ncc(Cc2ccc(Cl)c(Cl)c2)s1`: 83 to 85 °C; for `O=C(O)CNC(=O)c1ccccc1Cl`: 182 to 184 °C.
`CC(C)(C)Oc1ccc(C(=O)O)cn1` came in with a melting point of 139 to 141 °C.
Under `CCS(=O)(=O)c1ccc(CN)cc1` stands 51 to 53 °C.
Consider `NC(=O)NC1CC1`, for which the melting point was 114 to 116 °C.
The same measure for `O=C(O)CSC(=Cc1ccco1)c1nc2ccccc2s1`: 133 to 135 °C.
The same measure for `O=C1NC(=O)C2(CCc3ccccc32)N1` (stereo not drawn): 229 to 231 °C.
Under `Fc1ccc(-c2nnc(S)n2CCN2CCOCC2)cc1` stands 212 to 214 °C; under `Nc1ncccc1OCC1CCCCC1`, 117 to 119 °C; under `CCOC(=O)c1cc(C)nc2c(C(N)=O)cnn12`, 198 to 200 °C.
The compound `Cc1ccc(OCc2cccc(C(=O)O)c2)cn1` displayed a melting point of 166 to 168 °C.
The same measure for `CCN(CC)S(=O)(=O)c1ccc2c(c1)CCN2`: 80 to 82 °C; for `CC(=O)CCc1ccc2c(c1)OCO2`: 50 to 52 °C; for `Cc1ccc(S(C)(=O)=O)c(N)c1`: 103 to 105 °C.
The same measure for `O=C1CCc2cc(S(=O)(=O)Cl)c(F)cc2N1`: 207 to 209 °C; for `CCOC(=O)c1oc(NC)nc1C`: 103 to 105 °C; for `CS(=O)c1ccccc1N` (stereo not drawn): 156 to 158 °C.
The same measure for `O=C(O)C=CC(=O)c1ccc(F)c(F)c1`: 114 to 116 °C; for `NC(=O)c1ccccc1Oc1cccc(N)c1`: 129 to 131 °C.
In the case of `CNc1cc(C#N)c2ccccc2n1`, the melting point fell in the range of 166 to 168 °C.
For the compound `O=C(O)C1(O)CCSC1` (stereo not drawn), the melting point fell in the range of 99 to 101 °C.
Under `O=C(O)CSc1ccccc1Cl` stands 115 to 117 °C; under `O=S(=O)(CCCl)c1cc(Cl)ccc1Cl`, 80 to 82 °C.
Under `COc1cc(C(N)=NO)ccc1O` stands 147 to 149 °C; under `Nc1nnc(-c2ccccn2)[nH]1`, 199 to 201 °C.
The same measure for `CC(N)c1ccc(-n2cncn2)cc1` (stereo not drawn): 78 to 80 °C; for `CN1CC(N)C(=O)N1` (stereo not drawn): 55 to 57 °C.
`Cc1n[nH]c(C)c1-c1ccccc1N` came in with a melting point of 162 to 164 °C.
The same measure for `CCOC(=O)c1cc([N+](=O)[O-])cnc1C`: 45 to 52 °C.
